US20260053834A1, “COVALENT MODIFIERS OF AKT1 AND USES THEREOF” (Terremoto Biosciences, Inc., priority 2023, published 2026)
Like-named read-outs stand apart in the source and are kept apart here.

Assays:
AKT2 = target: T1, AKT2 (Homo sapiens, UniProt P31751); experiment: Live cell target engagement by NanoBRET competitive probe displacement, AKT2; format: binding; settings: transfected HEK293 cells, 2 h at 37° C., read-out: AKT2 IC50: GeoMean IC50
T1 construct: expressed in transfected cells; host or cells: HEK293
T1 sequence (P31751 whole entry): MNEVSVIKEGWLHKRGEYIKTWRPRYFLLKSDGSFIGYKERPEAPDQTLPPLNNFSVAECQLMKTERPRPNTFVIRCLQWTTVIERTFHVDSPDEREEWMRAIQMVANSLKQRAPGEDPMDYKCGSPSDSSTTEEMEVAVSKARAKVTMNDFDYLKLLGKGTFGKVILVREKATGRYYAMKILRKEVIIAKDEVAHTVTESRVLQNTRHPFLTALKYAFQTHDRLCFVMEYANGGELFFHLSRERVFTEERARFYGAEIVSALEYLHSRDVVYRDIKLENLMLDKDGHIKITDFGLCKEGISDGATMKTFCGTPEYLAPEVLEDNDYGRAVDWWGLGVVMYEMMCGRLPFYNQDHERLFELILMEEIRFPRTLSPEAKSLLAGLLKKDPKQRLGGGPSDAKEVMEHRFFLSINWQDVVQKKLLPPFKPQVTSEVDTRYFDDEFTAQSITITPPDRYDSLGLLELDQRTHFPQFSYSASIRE

AKT1 WT = target: T2, AKT1 WT (Homo sapiens, UniProt P31749); experiment: Live cell target engagement by NanoBRET competitive probe displacement, AKT1 WT; format: binding; settings: transfected HEK293 cells, 2 h at 37° C., read-out: AKT1 WT IC50: GeoMean IC50
T2 construct: expressed in transfected cells; host or cells: HEK293
T2 sequence (P31749 whole entry): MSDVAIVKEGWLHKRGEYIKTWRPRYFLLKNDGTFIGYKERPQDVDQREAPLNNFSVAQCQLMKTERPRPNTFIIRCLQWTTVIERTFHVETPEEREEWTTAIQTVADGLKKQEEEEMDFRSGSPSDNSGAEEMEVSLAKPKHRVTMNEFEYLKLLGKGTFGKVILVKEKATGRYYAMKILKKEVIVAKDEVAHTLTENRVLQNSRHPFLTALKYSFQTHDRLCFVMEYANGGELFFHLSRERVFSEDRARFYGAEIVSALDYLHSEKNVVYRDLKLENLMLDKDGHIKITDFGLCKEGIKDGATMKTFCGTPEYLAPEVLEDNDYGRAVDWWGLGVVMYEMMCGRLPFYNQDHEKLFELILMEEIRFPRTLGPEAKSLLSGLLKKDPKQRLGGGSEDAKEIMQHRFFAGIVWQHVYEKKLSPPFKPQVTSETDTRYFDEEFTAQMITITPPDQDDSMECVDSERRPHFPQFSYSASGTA

[1] = system: LAPC4 prostate cancer cells, which express the AKT1 E17K allele; experiment: Antiproliferative effects in LAPC4 cells (CellTiter Glo, 72 h); format: cell-based; settings: read-out: LAPC4 proliferation IC50: GeoMean IC50
Procedure, shortened: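 Cells grown in IMDM with 12% FBS, seeded at 1,000 cells/well and treated with compound dilutions in DMSO for 72 h. Intracellular ATP read by luminescence. IC50 from a log(inhibitor) vs. response Hill fit.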

AKT1 E17K = target: T3, AKT1 E17K (Homo sapiens, UniProt P31749, E17K); experiment: Live cell target engagement by NanoBRET competitive probe displacement, AKT1 E17K; format: binding; settings: transfected HEK293 cells, 2 h at 37° C., read-out: AKT1 E17K IC50: GeoMean IC50
T3 construct: expressed in transfected cells; host or cells: HEK293
T3 sequence (P31749 whole entry E17K): as the sequence (P31749 whole entry) above, with E17K counted along it

Compound	IC50 (AKT2)	IC50 (AKT1 WT)	IC50 ([1]; Homo sapiens, LAPC4, 72 h)	IC50 (AKT1 E17K)	IC50 [1]
Nc1ncccc1-c1nc2ccc(-n3cccn3)nc2n1-c1ccc2c(c1)CC[C@@H]2NC(=O)c1cc(C=O)c(O)c(Cl)c1F [Example 123, (S)—N-(5-(2-(2-aminopyridin-3-yl)-5-(1H-pyrazol-1-yl)-3H-imidazo[4,5-b]pyridin-3-yl)-2,3-dihydro-1H-inden-1-yl)-3-chloro-2-fluoro-5-formyl-4-hydroxybenzamide]	10 to 100 nM	10 to 100 nM	10 to 100 nM	< 10 nM	
Nc1ncccc1-c1nc2ccc(-c3ccccc3)nc2n1-c1ccc2c(c1)CC[C@@H]2NC(=O)c1cc(C=O)c(O)cc1Cl [Example 34, N-[(1S)-5-[2-(2-aminopyridin-3-yl)-5-phenylimidazo[4,5-b]pyridin-3-yl]-2,3-dihydro-1H-inden-1-yl]-2-chloro-5-formyl-4-hydroxybenzamide]	100 to 2000 nM	10 to 100 nM	100 to 2000 nM	10 to 100 nM	
Nc1ncccc1-c1nc2ccc(-n3cccn3)nc2n1-c1ccc2c(c1)CC(F)[C@@H]2NC(=O)c1ccc(O)c(C=O)c1 (single isomer, unassigned) [Example 257, N-[(1R,2S*)-5-[2-(2-aminopyridin-3-yl)-5-(pyrazol-1-yl)imidazo[4,5-b]pyridin-3-yl]-2-fluoro-2,3-dihydro-1H-inden-1-yl]-3-formyl-4-hydroxybenzamide]	100 to 2000 nM	10 to 100 nM		10 to 100 nM	100 to 2000 nM
Nc1ncccc1-c1nc2ccc(-n3cccn3)nc2n1-c1ccc2c(c1)CC[C@@H]2Nc1n[nH]c2c(C=O)cccc12 [Example 148, 3-{[(1S)-5-[2-(2-aminopyridin-3-yl)-5-(pyrazol-1-yl)imidazo[4,5-b]pyridin-3-yl]-2,3-dihydro-1H-inden-1-yl]amino}-1H-indazole-7-carbaldehyde]	100 to 2000 nM	100 to 2000 nM	100 to 2000 nM	10 to 100 nM	
Cc1csc(-c2ccc3nc(-c4cccnc4N)n(-c4ccc5c(c4)CC[C@@H]5NC(=O)c4ccc(O)c(C=O)c4)c3n2)n1 [Example 133, (S)—N-(5-(2-(2-aminopyridin-3-yl)-5-(4-methylthiazol-2-yl)-3H-imidazo[4,5-b]pyridin-3-yl)-2,3-dihydro-1H-inden-1-yl)-3-formyl-4-hydroxybenzamide]	10 to 100 nM	< 10 nM	10 to 100 nM	< 10 nM	
Cc1cc(C)n(-c2ccc3nc(-c4cccnc4N)n(-c4ccc5c(c4)CC[C@@H]5NC(=O)c4ccc(O)c(C=O)c4)c3n2)n1 [Example 129, N-[(1S)-5-[2-(2-aminopyridin-3-yl)-5-(3,5-dimethylpyrazol-1-yl)imidazo[4,5-b]pyridin-3-yl]-2,3-dihydro-1H-inden-1-yl]-3-formyl-4-hydroxybenzamide]	100 to 2000 nM	10 to 100 nM	100 to 2000 nM	10 to 100 nM	
[2H]C(=O)c1cc(C(=O)N[C@H]2CCc3cc(-n4c(-c5cccnc5N)nc5c(C)cc(-n6cccn6)nc54)ccc32)ccc1O [Example 183, (S)—N-(5-(2-(2-aminopyridin-3-yl)-7-methyl-5-(1H-pyrazol-1-yl)-3H-imidazo[4,5-b]pyridin-3-yl)-2,3-dihydro-1H-inden-1-yl)-3-(formyl-d)-4-hydroxybenzamide]	100 to 2000 nM	10 to 100 nM	100 to 2000 nM	10 to 100 nM	
Nc1ncccc1-c1nc2ccc(-n3cccn3)nc2n1-c1ccc2c(c1)CC[C@@H]2NC(=O)c1cc(C=O)c(O)c2ncoc12 [Example 253, N-[(1S)-5-[2-(2-aminopyridin-3-yl)-5-(pyrazol-1-yl)imidazo[4,5-b]pyridin-3-yl]-2,3-dihydro-1H-inden-1-yl]-5-formyl-4-hydroxy-1,3-benzoxazole-7-carboxamide]	100 to 2000 nM	100 to 2000 nM	100 to 2000 nM	100 to 2000 nM	
Nc1ncccc1-c1nc2ccc(-c3ccccc3)nc2n1-c1ccc2c(c1)CC[C@@H]2NC(=O)c1cc(C=O)c(O)c(F)c1F [Example 22, N-[(1S)-5-[2-(2-aminopyridin-3-yl)-5-phenylimidazo[4,5-b]pyridin-3-yl]-2,3-dihydro-1H-inden-1-yl]-2,3-difluoro-5-formyl-4-hydroxybenzamide]	10 to 100 nM	10 to 100 nM	10 to 100 nM	10 to 100 nM	
Nc1ncccc1-c1nc2ccc(-c3ccccc3)nc2n1-c1ccc2c(c1)CC[C@@H]2NC(=O)c1ccc(B(O)O)c(C=O)c1 [Example 161, (S)-(4-((5-(2-(2-aminopyridin-3-yl)-5-phenyl-3H-imidazo[4,5-b]pyridin-3-yl)-2,3-dihydro-1H-inden-1-yl)carbamoyl)-2-formylphenyl)boronic acid]	100 to 2000 nM	10 to 100 nM	100 to 2000 nM	10 to 100 nM	
Cc1cc(-c2ncco2)nc2c1nc(-c1cccnc1N)n2-c1ccc2c(c1)CC[C@@H]2NC(=O)c1ccc(O)c(C=O)c1 [Example 211, N-[(1S)-5-[2-(2-aminopyridin-3-yl)-7-methyl-5-(1,3-oxazol-2-yl)imidazo[4,5-b]pyridin-3-yl]-2,3-dihydro-1H-inden-1-yl]-3-formyl-4-hydroxybenzamide]	100 to 2000 nM	10 to 100 nM	10 to 100 nM	< 10 nM	

Now from value to compound:

IC50 (AKT2)	IC50 (AKT1 WT)	IC50 ([1]; Homo sapiens, LAPC4, 72 h)	IC50 (AKT1 E17K)	IC50 [1]	Compound
10 to 100 nM	< 10 nM	100 to 2000 nM	10 to 100 nM		Nc1ncccc1-c1nc2ccc(-n3cccn3)nc2n1-c1ccc2c(c1)CC[C@@H]2NC(=O)c1cccc(C=O)c1 [Example 142, (S)—N-(5-(2-(2-aminopyridin-3-yl)-5-(1H-pyrazol-1-yl)-3H-imidazo[4,5-b]pyridin-3-yl)-2,3-dihydro-1H-inden-1-yl)-3-formylbenzamide]
10 to 100 nM	10 to 100 nM	10 to 100 nM	10 to 100 nM		Nc1ncccc1-c1nc2ccc(-c3ccccc3)nc2n1-c1ccc2c(c1)CC[C@@H]2NC(=O)c1ccc(NC(=O)C2CC2)c(C=O)c1 [Example 47, N-[(1S)-5-[2-(2-aminopyridin-3-yl)-5-phenylimidazo[4,5-b]pyridin-3-yl]-2,3-dihydro-1H-inden-1-yl]-4-cyclopropaneamido-3-formylbenzamide]
100 to 2000 nM	100 to 2000 nM	100 to 2000 nM	10 to 100 nM		Nc1ncccc1-c1nc2ccc(-c3ncc(C(F)F)s3)nc2n1-c1ccc2c(c1)CC[C@@H]2NC(=O)c1ccc(O)c(C=O)c1 [Example 146, (S)—N-(5-(2-(2-aminopyridin-3-yl)-5-(5-(difluoromethyl)thiazol-2-yl)-3H-imidazo[4,5-b]pyridin-3-yl)-2,3-dihydro-1H-inden-1-yl)-3-formyl-4-hydroxybenzamide]
100 to 2000 nM	10 to 100 nM	100 to 2000 nM	10 to 100 nM		Nc1ncccc1-c1nc2ccc(-n3ccc(F)n3)nc2n1-c1ccc2c(c1)CC[C@@H]2NC(=O)c1ccc(O)c(C=O)c1 [Example 75, (S)—N-(5-(2-(2-aminopyridin-3-yl)-5-(3-fluoro-1H-pyrazol-1-yl)-3H-imidazo[4,5-b]pyridin-3-yl)-2,3-dihydro-1H-inden-1-yl)-3-formyl-4-hydroxybenzamide]
100 to 2000 nM	10 to 100 nM	10 to 100 nM	< 10 nM		Cc1cnc(-c2ccc3nc(-c4cccnc4N)n(-c4ccc5c(c4)CC[C@@H]5NC(=O)c4ccc(O)c(C=O)c4)c3n2)s1 [Example 132, (S)—N-(5-(2-(2-aminopyridin-3-yl)-5-(5-methylthiazol-2-yl)-3H-imidazo[4,5-b]pyridin-3-yl)-2,3-dihydro-1H-inden-1-yl)-3-formyl-4-hydroxybenzamide]
100 to 2000 nM	100 to 2000 nM	100 to 2000 nM	10 to 100 nM		Nc1ncccc1-c1nc2ccc(-n3cccn3)nc2n1-c1ccc2c(c1)CC[C@@H]2NC(=O)Cc1ccc(C=O)c(O)c1F [Example 216, (S)—N-(5-(2-(2-aminopyridin-3-yl)-5-(1H-pyrazol-1-yl)-3H-imidazo[4,5-b]pyridin-3-yl)-2,3-dihydro-1H-inden-1-yl)-2-(2-fluoro-4-formyl-3-hydroxyphenyl)acetamide; trifluoroacetic acid]
10 to 100 nM	10 to 100 nM	10 to 100 nM	10 to 100 nM		Nc1ncccc1-c1nc2ccc(-c3ccccc3)nc2n1-c1ccc2c(c1)CC[C@@H]2NC(=O)c1ccc(O)c(C=O)c1 [Example 5, (S)—N-(5-(2-(2-aminopyridin-3-yl)-5-phenyl-3H-imidazo[4,5-b]pyridin-3-yl)-2,3-dihydro-1H-inden-1-yl)-3-formyl-4-hydroxybenzamide]
100 to 2000 nM	100 to 2000 nM	≥ 2000 nM	100 to 2000 nM		Nc1ncccc1-c1nc2ccc(-c3ccccc3)nc2n1-c1ccc2c(c1)CC[C@@H]2NC(=O)C1(c2cnc(C=O)c(O)c2)CC1 [Example 12, N-[(1S)-5-[2-(2-aminopyridin-3-yl)-5-phenylimidazo[4,5-b]pyridin-3-yl]-2,3-dihydro-1H-inden-1-yl]-1-(6-formyl-5-hydroxypyridin-3-yl)cyclopropane-1-carboxamide]
≥ 2000 nM	100 to 2000 nM	100 to 2000 nM	10 to 100 nM		Cc1cc(C)c2nc(-c3cccnc3N)n(-c3ccc4c(c3)CC[C@@H]4NC(=O)c3ccc(O)c(C=O)c3)c2n1 [Example 69, N-[(1S)-5-[2-(2-aminopyridin-3-yl)-5,7-dimethylimidazo[4,5-b]pyridin-3-yl]-2,3-dihydro-1H-inden-1-yl]-3-formyl-4-hydroxybenzamide]
